Test results: US8494269B2, “Method and system for screening of a to-be-analyzed candidate as a skin-whitening agent” (National Sun Yat-Sen University, priority 2009, dated 2013)

Experiments:
[1] = test system: zebrafish larvae; assay: Zebrafish larvae skin-whitening screen, number of valid pixels by Image Scion; format: in vivo, zebrafish (Danio Rerio); conditions: for mean of the number of "valid pixels" versus concentration of the administered candidate: FIGS. 11, 12 and 13, 48 h exposure, Image Scion; for concentration giving statistically significant reduction of "valid pixels" in the images of the zebrafish vs control group: embryos exposed 48 h in Hank's buffer/DMSO, p<0.05, ANOVA followed by Duncan's method, Image Scion index 150-254; for conclusion of the screening as skin-whitening agent: second feature parameter smaller than the first with p<0.05
Procedure: The preparation of the zebrafish embryos was similar to, but with small modifications from, that disclosed in M. Westerfield (2007), The Zebrafish Book: A Guide for the Laboratory Use of Zebrafish (Danio Rerio), 5th edit. University of Oregon Press, Eugene, Oreg. First, one female fish and two male fish were put in a breeding tank having an acrylic grid under a water temperature of 28.5 degrees Celsius. Then, the breeding tank was made to undergo a first light-dark cycle of 14 hours of light and 10 hours of darkness. Subsequently, during the second light-dark cycle, the female fish and the male fish would respectively produce eggs and sperms for fertilization so as to obtain fertilized eggs. These fertilized eggs are referred to as fertilized eggs from “the same parental generation”. Next, after an hour, the fertilized eggs were removed from the breeding tank with a dropper, and were disposed in a Petri dish containing the Hank's buffer prepared according to the above-disclosed formula. Later, the Petri dish was disposed in an incubator (RI-80, FIRSTEK, Taiwan) under a controlled temperature of 28.5 degrees Celsius, and a controlled light-dark cycle of 14 hours of light and 10 hours of darkness for a 9-hour breeding process to allow development of the fertilized eggs into embryos. Subsequently, a Leica Z16 APO stereomicroscope (Leica, Heerbrugg, Switzerland) was used for the observation of the development of various embryos. Based on the observations, only well-developed embryos were kept for use in the experiments that followed.
First, arbutin (Sigma, Cat. No. A4256), N-phenylthiourea (Sigma, Cat. No. P7629) and kojic acid (Sigma, Cat. No. K3125) were respectively dissolved in a 2% dimethyl sulfoxide (DMSO) solution prepared from Hank's buffer to result in arbutin solutions with concentrations of 0.1 mM, 0.2 mM, 1 mM, 2 mM, 10 mM and 20 mM, N-phenylthiourea solutions with concentrations of 0.002 mM, 0.02 mM, 0.2 mM, 0.4 mM, 1 mM and 2 mM, and kojic acid solutions with concentrations of 0.2 mM, 1 mM, 2 mM, 20 mM, 40 mM and 100 mM, respectively. Next, each well of a 96-well plate is provided with 100 μL of Hank's buffer. Subsequently, in accordance with the operational conditions set forth below in Table 4, the zebrafish prepared in the way previously described under subsection 2 of section A (Materials used during experimentation) were added respectively to the wells, to which 100 μL of the to-be-analyzed candidates, i.e., arbutin, N-phenylthiourea and kojic acid solutions of various concentrations, were added so as to result in the final concentrations as shown in Table 4. The 96-well plate was then disposed in an incubator under a controlled temperature of 28.5 degrees Celsius, and a controlled light-dark cycle of 14 hours of light and 10 hours of darkness for a 48-hour breeding period to allow the embryos to develop into zebrafish larvae. It should be noted herein that the above procedure was for preparation of a plurality of the “second groups of zebrafish” (i.e., test groups (A2˜A7, N2˜N7, K2˜K7)), while each of the “first groups of zebrafish” (each for a kind of the to-be-tested candidate) were prepared using the same breeding process without the administration of the to-be-analyzed candidates so as to form control groups (A1, N1, K1).
A tricaine methanesulfonate solution (MS-222) with a concentration of 168 ppm was used to anesthetize the zebrafish larvae prepared in Procedure A. Next, a depression slide (Micro Scientific Laboratories, Inc., U.S.A., Cat. No. MM-104SC) containing 1% methyl cellulose (Sigma, Cat. No. M0512) was used to mount the zebrafish. Subsequently, Leica Z16 APO stereomicroscope was used to acquire images of the zebrafish with a 25× magnification rate and a 3.372 ms exposure time.
Image Scion was used to determine the mean of the number of “valid pixels” (i.e., pixels whose grayscale levels fall within a predefined range) in the images corresponding to the zebrafish of the same group. […]

[2] = test system: zebrafish larvae; assay: Zebrafish larvae skin-whitening screen, number of valid pixels by ImageJ version 1.40 g; format: in vivo, zebrafish (Danio Rerio); conditions: groups A1-A7, FIG. 14 vs FIG. 11; ImageJ threshold 0-85
Procedure: • (2) ImageJ version 1.40 g (ImageJ, National Institute of Health, Bethesda, Md., U.S.A.) with operation parameters set in Table 3 below for defining the predefined range for a pixel to be considered a “valid pixel”.
First, arbutin (Sigma, Cat. No. A4256), N-phenylthiourea (Sigma, Cat. No. P7629) and kojic acid (Sigma, Cat. No. K3125) were respectively dissolved in a 2% dimethyl sulfoxide (DMSO) solution prepared from Hank's buffer to result in arbutin solutions with concentrations of 0.1 mM, 0.2 mM, 1 mM, 2 mM, 10 mM and 20 mM, N-phenylthiourea solutions with concentrations of 0.002 mM, 0.02 mM, 0.2 mM, 0.4 mM, 1 mM and 2 mM, and kojic acid solutions with concentrations of 0.2 mM, 1 mM, 2 mM, 20 mM, 40 mM and 100 mM, respectively. Next, each well of a 96-well plate is provided with 100 μL of Hank's buffer. Subsequently, in accordance with the operational conditions set forth below in Table 4, the zebrafish prepared in the way previously described under subsection 2 of section A (Materials used during experimentation) were added respectively to the wells, to which 100 μL of the to-be-analyzed candidates, i.e., arbutin, N-phenylthiourea and kojic acid solutions of various concentrations, were added so as to result in the final concentrations as shown in Table 4. […]

| SMILES | mean of the number of "valid pixels" versus concentration of the administered candidate [1] | concentration giving statistically significant reduction of "valid pixels" in the images of the zebrafish vs control group [1] | conclusion of the screening as skin-whitening agent [1] | comparison of results obtained using ImageJ version 1.40 g with those using Image Scion [2] |
| --- | --- | --- | --- | --- |
| NC(=S)Nc1ccccc1 [N-phenylthiourea] | decreases with the concentration | at least 0.01 mM | suitable as skin-whitening agents |  |
| OC[C@H]1O[C@@H](Oc2ccc(O)cc2)[C@H](O)[C@@H](O)[C@@H]1O [arbutin] | decreases with the concentration | at least 0.05 mM | suitable as skin-whitening agents | no significant difference |
| O=c1cc(CO)occ1O [kojic acid] | decreases with the concentration | at least 10 mM | suitable as skin-whitening agents |  |
